Measurements from patent US20230339977A1, “SUBSTITUTED HETEROARYL COMPOUND, AND COMPOSITION AND APPLICATION THEREOF” (SUNSHINE LAKE PHARMA CO., LTD., priority 2020, published 2023).

What follows are compounds tested on JAK2/TYK2 (assay: Cell level activity test of JAK2/TYK2 (IL-12 mediated IFNγ expression in NK92 cells)). Details: NK92, 24 h, IFNγ in supernatant by ELISA, NK92 cells with IL-12, 24 h.
Type: cell-based
Source text: TYK2 belongs to the JAK family, and can accept the ligand acting on the coupled receptor signal to regulate downstream signal activator of transcription (STAT) phosphorylation. Phosphorylation of STAT can regulate the expression of downstream related genes, leading to changes in physiological functions such as cell proliferation and differentiation. IL-12 mediates IFNγ expression in NK92 cells through JAK2/TYK2.
Therefore, by inhibiting TYK2 activity, inhibition of this cascade pathway leads to a decrease in IFNγ expression. However, IL-2 can induce NK92 proliferation and produce IFNγ through receptor-coupled […], so the influence of IL-2 needs to be ruled out. In this experiment, the activity of compounds on JAK2/TYK2 was evaluated by detecting the expression of IFNγ at various compound concentrations.
The test compound was dissolved in DMSO, prepared into a 20 mM stock solution, and stored at -20° C. for future use. The mother solution was diluted 10 times with DMSO to make a 2 mM solution, then diluted with medium to an initial concentration of […], and then diluted 3-fold with medium containing 5% DMSO to obtain a prepared concentration gradient of […], 33333.3 nM, 11111.1 nM, 3703.70 nM, 1234.57 nM, 411.523 nM, 137.174 nM, 45.7247 nM, 15.2416 nM; 10 ul of the above-mentioned concentration of drugs were added into a 96-well plate to obtain the final concentrations of […], 3333.3 nM, 1111.1 nM, 370.4 nM, 123.5 nM, 41.1 nM, 13.7 nM, 4.6 nM, 1.52 nM;
NK92 cells were resuscitated and cultured, 16 h before the experiment, the medium was replaced with interleukin-free medium. The mixture was centrifuged and IL-12 medium was added to resuspend the cells, seeded 95 ul in a 96-well plate at a density of 20,000 cells/well, 10 ul of the above gradual dilution was added and incubated for 24 h, centrifuged to take the supernatant, diluted 3-fold with pure water, and the IFNγ concentration of the supernatant was detected by ELISA, the IC50 value was calculated.
Work on `CC(=O)Nc1cc2c(-c3cc(CC#N)c4c(n3)C3(CCOC3)OCC4)cn(C)c2cn1` (stereo not drawn) [Example 42, N-(3-(4′-(Cyanomethyl)-4,5,5′,6′-Tetrahydro-2H-Spiro[Furan-3,8′-Pyrano[3,4-b]Pyridin]-2′-yl)-1-Methyl-1H-Pyrrolo[2,3-c]Pyridin-5-yl)Acetamide] yielded an IC50 of 9.6 nM.
Work on `CC(=O)Nc1cc2c(-c3cc(SCCC(C)(C)O)c4c(n3)C3(CCOC3)OCC4)cn(C)c2cn1` (stereo not drawn) [Example 44, N-(3-(4′-((3-Hydroxy-3-Methylbutyl)Thio)-4,5,5′,6′-Tetrahydro-2H-Spiro[Furan-3,8′-Pyrano[3,4-b]Pyridin]-2′-yl)-1-Methyl-1H-Pyrrolo[2,3-c]Pyridin-5-yl)Acetamide] yielded an IC50 of 40.2 nM.
`CC(=O)Nc1cc2c(-c3cc(COCC(C)(C)O)c4c(n3)C3(CCOC3)OCC4)cn(C)c2cn1` (stereo not drawn) [Example 45, N-(3-(4′-((2-Hydroxy-2-Methylpropoxy)Methyl)-4,5,5′,6′-Tetrahydro-2H-Spiro[Furan-3,8′-Pyrano[3,4-b]Pyridin]-2′-yl)-1-Methyl-1H-Pyrrolo[2,3-c]Pyridin-5-yl)Acetamide] gave an IC50 of 111 nM.
In the case of `CC(=O)Nc1cc2c(-c3cc(NCCC(C)(C)O)c4c(n3)C3(CCOC3)OCC4)cn(C)c2cn1` (stereo not drawn) [Example 48, N-(3-(4′-((3-Hydroxy-3-Methylbutyl)Amino)-4,5,5′,6′-Tetrahydro-2H-Spiro[Furan-3,8′-Pyrano[3,4-b]Pyridin]-2′-yl)-1-Methyl-1H-Pyrrolo[2,3-c]Pyridin-5-yl)Acetamide], the IC50 is reported as 115 nM.
With `CC(=O)Nc1cc2c(-c3cc(OCCC(C)(C)O)c4c(n3)C3(CCOC3)OCC4)cn(C3COC3)c2cn1` (stereo not drawn) [Example 49, N-(3-(4′-(3-Hydroxy-3-Methylbutoxy)-4,5,5′,6′-Tetrahydro-2H-Spiro[Furan-3, 8′-Pyrano[3,4-b]Pyridin]-2′-yl)-1-(Oxetan-3-yl)-1H-Pyrrolo[2,3-c]Pyridin-5-yl)Acetamide] the IC50 was 68.1 nM.
Work on `CC(=O)Nc1cc2c(-c3cc(OCCC(C)(C)O)c4c(n3)C3(CCOC3)OCC4)cn(C(C)C)c2cn1` (stereo not drawn) [Example 50, N-(3-(4′-(3-Hydroxy-3-Methylbutoxy)-4,5,5′,6′-Tetrahydro-2H-Spiro[Furan-3, 8′-Pyrano[3,4-b]Pyridin]-2′-yl)-1-Isopropyl-1H-Pyrrolo[2,3-c]Pyridin-5-yl)Acetamide] yielded an IC50 of 47 nM.
